Counter-ions that a name gives are not always drawn.

In the test the target is T1, human 5-HT4(a) (Homo sapiens, UniProt Q13639).
T1 construct: host or cells: GeneBlAzer HTR4-CRE-bla CHO-K1 cells
T1 sequence (Q13639 1-387 isoform Q13639-2): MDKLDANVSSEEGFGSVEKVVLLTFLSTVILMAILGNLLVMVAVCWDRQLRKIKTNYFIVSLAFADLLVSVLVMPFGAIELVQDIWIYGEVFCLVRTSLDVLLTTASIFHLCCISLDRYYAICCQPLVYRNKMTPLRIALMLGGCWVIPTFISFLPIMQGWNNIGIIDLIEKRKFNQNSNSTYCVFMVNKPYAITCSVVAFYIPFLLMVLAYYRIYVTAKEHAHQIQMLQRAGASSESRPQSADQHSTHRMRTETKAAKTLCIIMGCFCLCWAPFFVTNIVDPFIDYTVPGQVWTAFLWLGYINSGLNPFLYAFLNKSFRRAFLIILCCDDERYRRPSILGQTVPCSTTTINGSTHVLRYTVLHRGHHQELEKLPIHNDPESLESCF
Description: Evaluation of agonistic activity in CHO-K1 cells expressing human 5-HT4(a) (GeneBlAzer HTR4-CRE-bla CHO-K1, beta-lactamase reporter). The test is classed as cell-based. Conditions: CHO-K1 cells stably expressing human 5-HT4(a). In short, it runs like this: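 GeneBlAzer HTR4-CRE-bla CHO-K1 cells, 10^4/well overnight, exposed 5 h to compounds at 8 concentrations in medium with 1% DMSO in the added solution. β-lactamase substrate 2 h in dark; 410 nm excitation, 465/535 nm emission ratio; EC50 by non-linear regression.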
As for `CCCCc1cc(N2CC[C@H](NC)C2)nc(Nc2ccc(C)c([N+](=O)[O-])c2)n1` [Example 448], the EC50 was found to be 2.5 pM.

`CCCCc1cc(N2CC[C@H](NC)C2)nc(Nc2ccc(F)c([N+](=O)[O-])c2)n1` [Example 449] gave a concentration giving a half-maximal response (EC50) of 4.4 pM.

Turning to `CCCCc1cc(N2CC[C@H](NC)C2)nc(Nc2ccc(Cl)c([N+](=O)[O-])c2)n1` [Example 450], the EC50 stood at 7.8 pM.

For `CCCCc1cc(N2CC[C@H](NC)C2)nc(Nc2cc(N)cc(C#N)c2)n1` [Example 451], the concentration for a half-maximal effect (EC50) is 3 pM.

In turn, `CCCCc1cc(N2CC[C@H](NC)C2)nc(Nc2cc(N)cc(C(F)(F)F)c2)n1` [Example 452] registered a concentration for a half-maximal effect (EC50) of 3.3 pM.

Compound `CCCCc1cc(N2CC[C@H](NC)C2)nc(Nc2ccc(N)c(C(F)(F)F)c2)n1` [Example 453] yielded an EC50 of 1.6 pM.

In the case of `CCCCc1cc(N2CC[C@H](NC)C2)nc(Nc2ccc(F)c(C(F)(F)F)c2)n1` [Example 454], the half-maximal effective concentration (EC50) stood at 14 pM.

In turn, `CCCCc1cc(N2CC[C@H](NC)C2)nc(Nc2ccc(F)c(C#N)c2)n1` [Example 455] registered an EC50 of 3.8 pM.

`CCCCc1cc(N2CC[C@H](NC)C2)nc(Nc2ccc(F)c(N)c2)n1` [Example 456] had an EC50 of 2.6 pM.

In the case of `CCCCc1cc(N2CC[C@H](NC)C2)nc(Nc2ccc(Cl)c(N)c2)n1` [Example 457], a half-maximal response (EC50) required 3 pM.

`CCCCc1cc(N2CC[C@H](NCC)C2)nc(Nc2ccc(N)c(C#N)c2)n1` [Example 458] registered a 50% effective concentration (EC50) of 1.7 pM.

With `CCCCc1cc(N2CC[C@H](NCC)C2)nc(Nc2cccc(C#N)c2)n1` [Example 459], the EC50 amounted to 3.4 pM.

Compound `CCCCc1cc(N2CC[C@H](NCC)C2)nc(Nc2ccc(C)c(C#N)c2)n1` [Example 460] came in with a half-maximal effective concentration (EC50) of 1.9 pM.

`CCCCc1cc(N2CC[C@H](NCC)C2)nc(Nc2ccc(N)c([N+](=O)[O-])c2)n1` [Example 461] yielded an EC50 of 1.9 pM.

`CCCCc1cc(N2CC[C@H](NCC)C2)nc(Nc2ccc(C)c([N+](=O)[O-])c2)n1` [Example 462] had an EC50 of 2.6 pM.

In the case of `CCCCc1cc(N2CC[C@H](NCC)C2)nc(Nc2ccc(F)c([N+](=O)[O-])c2)n1` [Example 463], the concentration giving a half-maximal response (EC50) stood at 2.1 pM.

On to `CCCCc1cc(N2CC[C@H](NCC)C2)nc(Nc2ccc(Cl)c([N+](=O)[O-])c2)n1` [Example 464], for which the response was half-maximal at 3.9 pM (EC50).

On to `CCCCc1cc(N2CC[C@H](NCC)C2)nc(Nc2cc(N)cc(C#N)c2)n1` [Example 465], for which the EC50 came out at 2.2 pM.

`CCCCc1cc(N2CC[C@H](NCC)C2)nc(Nc2cc(N)cc(C(F)(F)F)c2)n1` [Example 466] had an EC50 of 5.8 pM.

`CCCCc1cc(N2CC[C@H](NCC)C2)nc(Nc2ccc(N)c(C(F)(F)F)c2)n1` [Example 467] returned an EC50 of 1.4 pM.

For `CCCCc1cc(N2CC[C@H](NCC)C2)nc(Nc2ccc(F)c(C(F)(F)F)c2)n1` [Example 468], the EC50 was 6.2 pM.

For `CCCCc1cc(N2CC[C@H](NCC)C2)nc(Nc2ccc(F)c(C#N)c2)n1` [Example 469], the midpoint of the response, the EC50, lay at 2.1 pM.

As for `CCCCc1cc(N2CC[C@H](NCC)C2)nc(Nc2ccc(F)c(N)c2)n1` [Example 470], the EC50 turned out to be 2.5 pM.

As for `CCCCc1cc(N2CC[C@H](NCC)C2)nc(Nc2ccc(Cl)c(N)c2)n1` [Example 471], a half-maximal effect (EC50) was put at 3.3 pM.

The compound `CCCc1cc(N2CC[C@H](NC(=O)CO)C2)nc(Nc2ccc(C)c(C#N)c2)n1` [Example 472, (S)—N-{1-[2-(3-cyano-4-methylphenylamino)-6-propylpyrimidin-4-yl]pyrrolidin-3-yl}-2-hydroxyacetamide] yielded an EC50 of 7.5 pM.

Regarding `CCCc1cc(N2CC[C@H](NC(=O)CO)C2)nc(Nc2ccc(F)c(C#N)c2)n1` [Example 473], the EC50 was 22 pM.

`CCCc1cc(N2CC[C@H](NC(=O)CO)C2)nc(Nc2cc(N)cc(C#N)c2)n1` [Example 474, (S)—N-{1-[2-(3-amino-5-cyanophenylamino)-6-propylpyrimidin-4-yl]pyrrolidin-3-yl}-2-hydroxyacetamide] showed a concentration giving a half-maximal response (EC50) of 6.6 pM.

In the case of `CCCc1cc(N2CC[C@H](NC(=O)CO)C2)nc(Nc2cc(N)cc(C(F)(F)F)c2)n1` [Example 475], the concentration for a half-maximal effect (EC50) worked out at 11 pM.

In turn, `CCCc1cc(N2CC[C@H](NC(=O)CO)C2)nc(Nc2ccc(N)c(C(F)(F)F)c2)n1` [Example 476] came in with an EC50 of 14 pM.

`CCCc1cc(N2CC[C@H](NC(=O)CO)C2)nc(Nc2ccc(F)c(C(F)(F)F)c2)n1` [Example 477] registered a concentration giving a half-maximal response (EC50) of 9.6 pM.

With `CCCc1cc(N2CC[C@H](NC(=O)CO)C2)nc(Nc2ccc(F)c(N)c2)n1` [Example 478], the midpoint of the response, the EC50, lay at 24 pM.

Turning to `CCCc1cc(N2CC[C@H](NC(=O)CO)C2)nc(Nc2ccc(Cl)c(N)c2)n1` [Example 479], the EC50 is 6.4 pM.

`CCCc1cc(N2CC[C@H](NC(=O)CO)C2)nc(Nc2ccc(C)c(Cl)c2)n1` [Example 480] yielded an EC50 of 32 pM.

With `CCCc1cc(N2CC[C@H](NC(=O)CO)C2)nc(Nc2ccc(C)c(C(F)(F)F)c2)n1` [Example 481], the EC50 was 9.3 pM.

As for `CCCc1cc(N2CC[C@H](NC)C2)nc(Nc2ccc(F)c(N)c2)n1` [Example 484], the EC50 stood at 5.8 pM.

With `CCCc1cc(N2CC[C@H](NC)C2)nc(Nc2cc(N)cc(C#N)c2)n1` [Example 485], the response was half-maximal at 2.4 pM (EC50).

In turn, `CCCc1cc(N2CC[C@H](NC)C2)nc(Nc2ccc(N)c(C#N)c2)n1` [Example 486] came in with a concentration giving a half-maximal response (EC50) of 1.4 pM.

`CCCc1cc(N2CC[C@H](NC)C2)nc(Nc2cc(N)cc(C(F)(F)F)c2)n1` [Example 487] gave a half-maximal effective concentration (EC50) of 2.1 pM.

With `CCCc1cc(N2CC[C@H](NCC)C2)nc(Nc2ccc(N)c(C#N)c2)n1` [Example 489], the response was half-maximal at 1.5 pM (EC50).

In turn, `CCCc1cc(N2CC[C@H](NC)C2)nc(Nc2ccc(F)c(C(F)(F)F)c2)n1` [Example 490] had an EC50 of 4.8 pM.

As to `CCCc1cc(N2CC[C@H](NCC)C2)nc(Nc2ccc(F)c(C(F)(F)F)c2)n1` [Example 491, (S)-4-[3-(ethylamino)pyrrolidin-1-yl]-N-[4-fluoro-3-(trifluoromethyl)phenyl]-6-propylpyrimidin-2-amine hydrochloride], it took 2.9 pM to reach a half-maximal effect (EC50).

Turning to `CCCCc1cc(N2CC[C@H](NC(C)=O)C2)nc(Nc2ccc(C)c(C#N)c2)n1` [Example 492, (S)-N-{1-[6-butyl-2-(3-cyano-4-methylphenylamino)pyrimidin-4-yl]pyrrolidin-3-yl}acetamide hydrochloride], a half-maximal response (EC50) required 19 pM.

`CCCc1cc(N2CC[C@H](NC(C)=O)C2)nc(Nc2ccc(C)c(N)c2)n1` [Example 493, (S)-N-{1-[2-(3-amino-4-methylphenylamino)-6-propylpyrimidin-4-yl]pyrrolidin-3-yl}acetamide hydrochloride] showed a half-maximal effective concentration (EC50) of 24 pM.

“(S)-2-{1-[2-(indolin-6-ylamino)-6-propylpyrimidin-4-yl]pyrrolidin-2-yl}methanol [Example 217]” yielded an EC50 of 230 pM.

In the case of “(S)-3-amino-5-[4-(3-aminopyrrolidin-1-yl)-6-propylpyrimidin-2-amino]benzonitrile [Example 362]”, a half-maximal response (EC50) required 2.1 pM.

The values above are taken from patent US9890138B2, “Diaminopyrimidine derivatives and processes for the preparation thereof” (YUHAN CORPORATION, priority 2011, dated 2018).
